In patent publication US11053205B2, “Phenazine derivatives as antimicrobial agents” (University of Florida Research Foundation, Incorporated, priority 2017, dated 2021):
pIC50: −log10 of the molar value. ≈ marks a conversion by molar mass, not a printed value. Where “and” joins values, the source holds several entries; their conditions need not be identical. Equal entries are not always repeated. Where two headings read alike, the source gives them in different places. Marks after values point to notes of the source that are not given here.

Assays:
MRSA BAA-1707 [1] = experiment: Metal(II)-cation co-treatment MIC assay; type: cell-based; details: Staphylococcus aureus
MRSA, MRSE, and VRE = experiment: MIC assays against MRSA, MRSE, and VRE (all strains); details: in words
MRSA-2 biofilms = experiment: Calgary Biofilm Device (CBD) assay, MBC/MBEC; details: CBD; for MRSA-2 MBEC: biofilm eradication; for MRSA-2 MBC: planktonic killing
[2] = test system: M. tuberculosis H37Ra (ATCC 25177); experiment: MIC assay for Mycobacterium tuberculosis; type: cell-based; details: read-out: MtB H37Ra MIC
Procedure: (§1) The culture was then diluted with fresh medium until an OD600 of 0.01 was reached. […] The final DMSO concentration was maintained at 0.5%. […] Three rows were reserved for each compound. […] OD600 absorbance was recorded using SPECTRAMAX M5 (Molecular Devices). Data obtained from three independent experiments were analyzed using Excel.
as §1, with “SpectraMax” for “SPECTRAMAX”

MRSE 35984 biofilms = experiment: Calgary Biofilm Device (CBD) assay, MBC/MBEC; details: CBD; for MRSE 35984 MBEC: biofilm eradication; for MRSE 35984 MBC: planktonic killing
MRSA BAA-44 biofilms = experiment: Calgary Biofilm Device (CBD) assay, MBC/MBEC; details: for MRSA BAA-44 MBEC: biofilm eradication; for MRSA BAA-44 MBC: planktonic killing
MRSE 35984 = experiment: MIC, broth microdilution (CLSI); details: 16 to 18 hours at 37° C.
MRSA BAA-1707 biofilms = experiment: Calgary Biofilm Device (CBD) assay, MBC/MBEC; details: CBD; for MRSA BAA-1707 MBEC: biofilm eradication; for MRSA BAA-1707 MBC: planktonic killing
VRE 700221 biofilms = experiment: Calgary Biofilm Device (CBD) assay, MBC/MBEC; details: CBD; for VRE 700221 MBC: planktonic killing
VRE 700221 = experiment: MIC, broth microdilution (CLSI); details: 16 to 18 hours at 37° C.
MRSA BAA-1707 [3] = experiment: MIC, broth microdilution (CLSI); details: 16 to 18 hours at 37° C.; 0.10 = lowest concentration tested
MRSA-2 = experiment: MIC, broth microdilution (CLSI); details: 16 to 18 hours at 37° C.

| SMILES | activity in MIC assays (MRSA, MRSE, and VRE) | MRSA-2 MBEC (MRSA-2 biofilms) | MRSA-2 MBC (MRSA-2 biofilms) | MIC [2] | MRSE 35984 MIC (MRSE 35984) | VRE 700221 MIC (VRE 700221) | MRSA BAA-1707 MIC (MRSA BAA-1707 [3]) | Hemolysis at 200 μM (human red blood cells) | MRSA-2 MIC (MRSA-2) | further results |
| --- | --- | --- | --- | --- | --- | --- | --- | --- | --- | --- |
| Oc1cccc2nc3ccccc3nc12 [1-OHP, 1-hydroxyphenazine] |  |  |  |  |  |  |  |  |  | MIC (MRSA BAA-1707 [1]): 250 µM; MIC (MRSA BAA-1707 [1]; read-out: MIC w/ Cu2+): 75 µM; MIC (MRSA BAA-1707 [1]; read-out: MIC w/ Fe2+): 250 µM; MIC (MRSA BAA-1707 [1]; read-out: MIC w/ Mg2+): 250 µM; MIC (MRSA BAA-1707 [1]; read-out: MIC w/ Zn2+): > 500 µM |
| Oc1cccc2cccnc12 [8-OHQ, 8-hydroxyquinoline] |  |  |  |  |  |  |  |  |  | MIC (MRSA BAA-1707 [1]; read-out: MIC w/ Mg2+): 6.25 µM |
| OC[C@H]1O[C@@H](Oc2c(Br)cc(Br)c3nc4ccccc4nc23)[C@H](O)[C@@H](O)[C@@H]1O [79A] | no activity in MIC assays |  |  |  |  |  |  |  |  |  |
| COCCOCCOCCOC(=O)OCOc1c(Br)cc(Br)c2nc3ccccc3nc12 [80A] | no activity in MIC assays |  |  |  |  |  |  |  |  |  |
| O=C(OCCOCCOCCOCCO)OCOc1c(Br)cc(Br)c2nc3ccccc3nc12 [82A] | no activity in MIC assays |  |  |  |  |  |  |  |  |  |
| O=C(OCCSSCCOC(=O)c1ccccc1)OCOc1c(Br)cc(Br)c2nc3ccccc3nc12 [85A] | no antibacterial activity against any pathogen tested |  |  |  |  |  |  |  |  |  |
| Oc1c(Br)cc(Br)c2nc3ccccc3nc12 [Compound 1A] |  | 100 µM | 50 µM | 25 µM (≈ 8.85 µg/mL) | 1.17^a μM and 1.17 μM | 6.25 µM |  |  |  | pIC50 (HeLa cells): < 4.00; MRSE 35984 MBEC (MRSE 35984 biofilms): 100 µM; MRSE 35984 MBC (MRSE 35984 biofilms): 50 µM; MRSA BAA-44 MBEC (MRSA BAA-44 biofilms): 150 µM; MRSA BAA-44 MBC (MRSA BAA-44 biofilms): 375 µM; MRSA BAA-1707 MBEC (MRSA BAA-1707 biofilms): 150 µM; MRSA BAA-1707 MBC (MRSA BAA-1707 biofilms): 37.5 µM and 18.8 µM; VRE 700221 MBC (VRE 700221 biofilms): 23.5 µM |
| Oc1c(Br)cc(Br)c2nc3cc(Cl)ccc3nc12 [Compound 27] |  |  |  |  |  |  | 0.1 µM |  |  | MIC ([2]; seven days at 37° C.): 3.13 µM (≈ 1.22 µg/mL); MRSE 35984 MBEC (MRSE 35984 biofilms): 2.35 µM |
| Cc1ccc2nc3c(O)c(Br)cc(Br)c3nc2c1 [Compound 52A] |  |  |  | 6.25 µM (≈ 2.3 µg/mL) | 0.3^a μM | 2.35^a μM |  | ≤1% |  | VRE 700221 MBEC (VRE 700221 biofilms; biofilm eradication): 3.13 µM; VRE 700221 MBC (VRE 700221 biofilms): 12.5 µM |
| CCc1ccc2nc3c(O)c(Br)cc(Br)c3nc2c1 [Compound 53A] |  | 150 µM | 75 µM | 6.25 µM (≈ 2.39 µg/mL) | 0.1^b μM | 2.35^a μM | 0.1^b μM | 3.0% | 0.59^a μM | MRSE 35984 MBEC (MRSE 35984 biofilms): 75 µM; MRSE 35984 MBC (MRSE 35984 biofilms): 50 µM; MRSA BAA-44 MBEC (MRSA BAA-44 biofilms): 75^a/75^a μM; MRSA BAA-44 MBC (MRSA BAA-44 biofilms): 75^a/75^a μM; MRSA BAA-1707 MBEC (MRSA BAA-1707 biofilms): 150 µM; MRSA BAA-1707 MBC (MRSA BAA-1707 biofilms): 75 µM |
| CC(C)(C)c1ccc2nc3c(O)c(Br)cc(Br)c3nc2c1 [Compound 55A] |  | 3.13/3.13 μM | 3.13/3.13 μM |  | 0.1^b μM | 0.1^b μM | 0.1^b μM | ≤1% | 0.1^b μM |  |
| Oc1c(Br)cc(Br)c2nc3cc(Cl)ccc3nc12 [Compound 61A] |  | 25 µM | 6.25 µM |  | 0.1^b μM |  |  | ≤1% | 0.1^b μM |  |
| Oc1c(Br)cc(Br)c2nc3cc(Oc4ccccc4)ccc3nc12 [Compound 63A] |  |  |  | 6.25 µM (≈ 2.79 µg/mL) | 0.1^b μM |  | 0.075^a μM | ≤1% | 0.39 µM | MRSA BAA-1707 MBC (MRSA BAA-1707 biofilms): […]; VRE 700221 MBC (VRE 700221 biofilms): 2.35 µM |
